Experimental data reported in ChEMBL document CHEMBL4177643, “Trisubstituted purine inhibitors of PDGFRα and their antileukemic activity in the human eosinophilic cell line EOL-1” (Bioorg Med Chem, 2017).

Tests used:
K562 [1] = experiment: Cytotoxicity against human K562 cells assessed as growth inhibition after 72 hrs by calcein-AM dye based fluorescence assay; type: functional; conditions: K562, 72 h
[2] = target: Cyclin-dependent kinase 2/cyclin E1 (Homo sapiens, UniProt P24941); experiment: Inhibition of CDK2/cyclin E (unknown origin) expressed in baculovirus infected insect Sf9 cells using histone H1 as substrate in presence of [gamma-33P]ATP
BT-474 = experiment: Cytotoxicity against human BT474 cells assessed as growth inhibition after 72 hrs by calcein-AM dye based fluorescence assay; type: functional; conditions: BT-474, 72 h
HCC827 [3] = experiment: Cytotoxicity against human HCC827 cells assessed as growth inhibition after 72 hrs by calcein-AM dye based fluorescence assay; type: functional; conditions: HCC827, 72 h
MCF7 = experiment: Cytotoxicity against human MCF7 cells assessed as growth inhibition after 72 hrs by calcein-AM dye based fluorescence assay; type: functional; conditions: MCF7, 72 h
[4] = target: Platelet-derived growth factor receptor alpha (Homo sapiens, UniProt P16234); experiment: Inhibition of recombinant human N-terminal GST-His6 tagged PDGFRalpha (Q551 to L1089 residues) expressed in Sf9 insect cells using poly(Ala,Glu,Lys,Tyr)6:2:5:1 hydrobromide as substrate in presence of [gamma-33P]ATP
Sequence of Platelet-derived growth factor receptor alpha (P16234 whole entry, the tested form may be a part): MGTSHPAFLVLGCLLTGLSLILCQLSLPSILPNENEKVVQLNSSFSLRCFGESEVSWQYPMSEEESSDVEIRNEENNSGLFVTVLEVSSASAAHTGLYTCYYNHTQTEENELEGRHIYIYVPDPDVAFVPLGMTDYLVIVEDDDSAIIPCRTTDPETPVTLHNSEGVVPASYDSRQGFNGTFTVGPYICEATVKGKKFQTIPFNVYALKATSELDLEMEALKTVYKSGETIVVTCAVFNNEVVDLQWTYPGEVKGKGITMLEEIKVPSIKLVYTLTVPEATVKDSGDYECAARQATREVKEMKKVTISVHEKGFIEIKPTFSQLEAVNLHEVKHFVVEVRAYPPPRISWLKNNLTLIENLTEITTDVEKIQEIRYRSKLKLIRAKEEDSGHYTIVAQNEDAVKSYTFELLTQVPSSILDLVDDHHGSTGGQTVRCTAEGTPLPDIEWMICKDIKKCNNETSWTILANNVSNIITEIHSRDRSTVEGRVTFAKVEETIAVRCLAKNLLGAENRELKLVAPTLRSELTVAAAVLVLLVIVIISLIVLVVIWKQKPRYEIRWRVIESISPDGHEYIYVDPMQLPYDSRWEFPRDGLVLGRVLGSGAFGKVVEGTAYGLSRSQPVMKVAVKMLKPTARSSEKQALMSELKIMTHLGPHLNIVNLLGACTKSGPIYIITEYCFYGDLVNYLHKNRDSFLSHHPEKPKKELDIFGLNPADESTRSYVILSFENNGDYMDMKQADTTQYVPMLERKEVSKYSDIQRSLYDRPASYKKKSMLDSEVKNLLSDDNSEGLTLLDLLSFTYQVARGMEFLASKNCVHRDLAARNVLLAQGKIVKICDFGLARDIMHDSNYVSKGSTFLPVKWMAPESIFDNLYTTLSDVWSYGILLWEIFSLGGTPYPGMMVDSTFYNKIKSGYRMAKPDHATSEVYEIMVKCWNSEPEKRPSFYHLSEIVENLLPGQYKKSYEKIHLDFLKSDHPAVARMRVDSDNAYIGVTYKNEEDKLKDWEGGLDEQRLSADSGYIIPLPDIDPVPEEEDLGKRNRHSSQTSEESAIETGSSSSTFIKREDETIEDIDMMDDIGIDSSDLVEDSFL

K562 [5] = experiment: Cell cycle arrest in human K562 cells assessed as G1/G2-M ratio at GI50 concentration after 24 hrs by propidium iodide staining-based flow cytometry relative to control; type: functional
EOL1 [6] = experiment: Cell cycle arrest in human EOL-1 cells assessed as G1/G2-M ratio at GI50 concentration after 24 hrs by propidium iodide staining-based flow cytometry relative to control; type: functional
HCC827 [7] = experiment: Cell cycle arrest in human HCC827 cells assessed as G1/G2-M ratio at GI50 concentration after 24 hrs by propidium iodide staining-based flow cytometry relative to control; type: functional
EOL1 [8] = experiment: Cytotoxicity against human EOL-1 cells assessed as growth inhibition after 72 hrs by calcein-AM dye based fluorescence assay; type: functional; conditions: EOL1, 72 h

| Structure (SMILES) | GI50 (K562 [1]) [µM] | IC50 [2] [µM] | GI50 (BT-474) [µM] | GI50 (HCC827 [3]) [µM] | GI50 (MCF7) [µM] | IC50 [4] [µM] | Ratio (K562 [5]) | Ratio (EOL1 [6]) | Ratio (HCC827 [7]) | GI50 (EOL1 [8]) [µM] |
| --- | --- | --- | --- | --- | --- | --- | --- | --- | --- | --- |
| CCCCn1cnc2c(Nc3ccccc3)nc(N[C@H]3CC[C@H](N)CC3)nc21 | 3.2 | 0.134 | 4.9 | 9 | 2.2 | 0.16 | 2.29 | 4.93 | 0.33 | 0.02 |
| CCCCCCn1cnc2c(Nc3cc(OC)cc(OC)c3)nc(N[C@H]3CC[C@H](N)CC3)nc21 | 1.9 | 0.68 | 3.7 | 9.1 | 3.5 | 1.41 | 1.4 | 3.78 | 9.67 | 0.38 |
| CC(C)CCn1cnc2c(Nc3ccc(Cl)cc3)nc(N[C@H]3CC[C@H](N)CC3)nc21 | 1.8 | 0.319 | 5.1 | 10.2 | 2.7 | 0.059 | 0.81 | 7.8 | 3.5 | 0.09 |
| CC(C)CCn1cnc2c(NCc3cccc(Cl)c3)nc(N[C@H]3CC[C@H](N)CC3)nc21 | 3.1 | 0.306 | 6.6 | 16.7 | 4.7 | > 20 | 1.85 | 1.77 | 2.5 | 1.33 |
| CC(C)=CCC/C(C)=C/Cn1cnc2c(Nc3cccc(Cl)c3)nc(N[C@H]3CC[C@H](N)CC3)nc21 | 2.2 | 7.17 | 4.3 | 18.2 | 3.6 | 4.74 | 1.78 | 1.13 | 1.94 | 0.59 |
| CC(C)CCn1cnc2c(Nc3ccc(O)cc3)nc(N[C@H]3CC[C@H](N)CC3)nc21 | 4.6 | 0.49 | 7.7 | 14.4 | 3.1 | 0.15 | 0.73 | 1.17 | 2.71 | 0.03 |
| CCCCn1cnc2c(Nc3cccc(Cl)c3)nc(N[C@H]3CC[C@H](N)CC3)nc21 | 2 | 0.132 | 5.1 | 7.2 | 2 | 0.154 | 0.78 | 10.75 | 0.54 | 0.16 |
| COc1cc(Nc2nc(N[C@H]3CC[C@H](N)CC3)nc3c2ncn3CCC(C)C)cc(OC)c1 | 2.5 | 0.98 | 5.9 | 11.2 | 4.5 | 0.29 | 1.6 | 3.71 | 1.47 | 0.14 |
| CCCCCCn1cnc2c(Nc3cccc(Cl)c3)nc(N[C@H]3CC[C@H](N)CC3)nc21 | 2.3 | 0.5 | 5.1 | 10.2 | 2.7 | 0.195 | 0.79 | 1.86 | 7.37 | 0.31 |
| N[C@H]1CC[C@H](Nc2nc(Nc3ccc(Cl)cc3)c3ncn(C4CCCCC4)c3n2)CC1 | 1.7 | 0.965 | 4.1 | 9.1 | 2.3 | 1.09 | 0.79 | 2.64 | 2.68 | 0.14 |
| CS(=O)(=O)CCNCc1ccc(-c2ccc3ncnc(Nc4ccc(OCc5cccc(F)c5)c(Cl)c4)c3c2)o1 [LAPATINIB] | 5.7 | – | 0.2 | 22.3 | 8.1 | – | – | – | – | 0.41 |
| CCCCn1cnc2c(NCc3cccc(Cl)c3)nc(N[C@H]3CC[C@H](N)CC3)nc21 | 4.3 | 0.207 | 4.7 | 10.6 | 2.2 | > 20 | 1.27 | 0.99 | 0.26 | 0.35 |
| COc1ccc(Cn2cnc3c(Nc4cccc(Cl)c4)nc(N[C@H]4CC[C@H](N)CC4)nc32)cc1 | 2.8 | 5.5 | 8.2 | 18.7 | 4.8 | 7.66 | 1.43 | 0.96 | 1.94 | 0.53 |
| CC(C)CCn1cnc2c(Nc3ccccc3)nc(N[C@H]3CC[C@H](N)CC3)nc21 | 3.5 | 0.627 | 6.4 | 21.7 | 5.4 | 0.096 | 1.2 | 1.67 | 0.39 | 0.01 |
| CCCCCCn1cnc2c(Nc3ccc(O)cc3)nc(N[C@H]3CC[C@H](N)CC3)nc21 | 5.4 | 0.485 | 7.7 | 24.7 | 3.5 | 0.452 | 0.69 | 2.5 | 0.44 | 0.19 |
| CCn1cnc2c(Nc3cccc(Cl)c3)nc(N[C@@H]3CCCC[C@@H]3N)nc21 | 4.8 | 0.017 | 5.4 | 12.2 | 3.3 | > 20 | 0.48 | 1.28 | 0.29 | 0.99 |
| COc1ccc(Nc2nc(N[C@H]3CC[C@H](N)CC3)nc3c2ncn3CCC(C)C)c(OC)c1 | 5.5 | 5.97 | 7.9 | 32.9 | 6.3 | 3.2 | 1 | 1.65 | 23.09 | 0.63 |
| N[C@H]1CC[C@H](Nc2nc(Nc3ccc(O)cc3)c3ncn(C4CCCCC4)c3n2)CC1 | 8.9 | 1.44 | 27.3 | 32.5 | 9.6 | 1.23 | 0.95 | 2.44 | 9.61 | 0.22 |
| CCCCCCn1cnc2c(Nc3ccc(Cl)cc3)nc(N[C@H]3CC[C@H](N)CC3)nc21 | 2.1 | 0.433 | 5.5 | 11.7 | 4.2 | 0.156 | 0.88 | 4.61 | 5.2 | 0.44 |
| CC(C)=CCn1cnc2c(Nc3cccc(Cl)c3)nc(N[C@H]3CC[C@H](N)CC3)nc21 | 3.5 | 0.227 | 7 | 13.5 | 4.2 | 0.187 | 0.75 | 3.1 | 2.69 | 0.08 |
| CCCCn1cnc2c(Nc3ccc(Cl)cc3)nc(N[C@H]3CC[C@H](N)CC3)nc21 | 2.7 | 0.117 | 7.3 | 10.8 | 2.1 | 0.06 | 1.52 | 6.43 | 0.28 | 0.05 |
| CC(C)CCn1cnc2c(Nc3cccc(O)c3)nc(N[C@H]3CC[C@H](N)CC3)nc21 | 7.6 | 0.513 | 14.7 | 21.3 | 12.6 | 0.066 | 1.22 | 8.94 | 5.6 | 0.06 |
| CCCCn1cnc2c(Nc3cc(OC)cc(OC)c3)nc(N[C@H]3CC[C@H](N)CC3)nc21 | 2.4 | 0.442 | 15.6 | 20.1 | 4.5 | 1.5 | 0.82 | 1.3 | 1.35 | 0.37 |
| N[C@H]1CC[C@H](Nc2nc(Nc3cccc(Cl)c3)c3ncn(Cc4ccccc4)c3n2)CC1 | 3 | 2.83 | 10.2 | 13.7 | 3.6 | 5.1 | 1.76 | 0.99 | 10.37 | 0.38 |
